Data reported in US20120135055A1, “Dry Powder Inhaler Formulations” (BREATH LIMITED, priority 2009, published 2012).

How the values were obtained:
[1] = Dry Sympatec PSD analysis (particle size distribution); format: physicochemical; settings: pre-storage
[2] = Effect of humidity on prolonged storage (20% RH, 48 hours; DVS, DSC, TGA, PSD, SEM); format: physicochemical; settings: 20% RH for 48 hours; for DSC trace, thermal behaviour of stored sample: post-humidity treatment
Procedure: In order to evaluate the effect of humidity on prolonged storage processed BDP hydrate was subjected to 20% relative humidity (RH) for 48 hours. The sample recovered after storage was analysed by DSC, TGA, PSD and SEM. In order to evaluate the effect of humidity on prolonged storage, processed BDP heptane was subjected to 20% relative humidity (RH) for 48 hours. The sample recovered after storage was analysed by DSC, TGA, PSD and SEM.

| Compound | Particle size distribution relative to the inhalation range [1] | DVS mass plot, change of mass during storage [2] | Stability on prolonged storage compared with anhydrous BDP [2] | DSC trace, thermal behaviour of stored sample [2] | Particle Size, cumulative distribution Q3 X50 ([2]; post-storage sample) [μ] | Particle Size, cumulative distribution Q3 X90 ([2]; post-storage sample) [μ] | Particle Size, cumulative distribution Q3 X10 ([2]; post-storage sample) [μ] |
| --- | --- | --- | --- | --- | --- | --- | --- |
| CCC(=O)OCC(=O)[C@@]1(OC(=O)CC)[C@@H](C)C[C@H]2[C@@H]3CCC4=CC(=O)C=C[C@]4(C)[C@@]3(Cl)[C@@H](O)C[C@@]21C.O [BDP hydrate, beclomethasone diproprionate] | well within the inhalation range | considerable weight loss due to partial dehydration | higher stability on prolonged storage than anhydrous BDP | no variation in the thermal behaviour | 1.37 | 2.95 |  |
| CCC(=O)OCC(=O)[C@@]1(OC(=O)CC)[C@@H](C)C[C@H]2[C@@H]3CCC4=CC(=O)C=C[C@]4(C)[C@@]3(Cl)[C@@H](O)C[C@@]21C.O [BDP heptane, beclomethasone diproprionate] | extremely promising and within the inhalation range |  |  | no variation in the thermal behaviour | 2.44 | 5.29 | 0.68 |
